Results as given in ChEMBL document CHEMBL4402571, “Methylation of Daptomycin Leading to the Discovery of Kynomycin, a Cyclic Lipodepsipeptide Active against Resistant Pathogens” (J Med Chem, 2020).
Converted amounts (≈) assume the structure as drawn.

Key:
Enterococcus faecium [1] = assay: Antibacterial activity against Enterococcus faecium ET6 by broth microdilution method; type: functional
Staphylococcus aureus [2] = assay: Antibacterial activity against Staphylococcus aureus ATCC 29213 assessed as ratio of MIC after and before 7 serial passages at sub-MIC by broth microdilution method; type: functional
Staphylococcus aureus [3] = assay: Antibacterial activity against methicillin-resistant Staphylococcus aureus 0114 infected in iv dosed CD-1 ICR mouse administered as single dose measured after 7 days; type: functional; conditions: Staphylococcus aureus, 0114, iv, 168 h
Enterococcus faecalis [4] = assay: Bactericidal activity against Enterococcus faecalis ATCC 29212 incubated prior to replating on agar plate measured after overnight incubation; type: functional
Staphylococcus aureus [5] = assay: Antibacterial activity against Staphylococcus aureus USA300 infected in Balb/c mouse model of sepsis assessed as mouse survival at 0.925 mg/kg, sc administered twice daily for 5 days starting from 1 hr post-infection relative to control; type: functional
Staphylococcus aureus [6] = assay: Antibacterial activity against methicillin-resistant Staphylococcus aureus SA11 by broth microdilution method; type: functional
Enterococcus faecalis [7] = assay: Antibacterial activity against Enterococcus faecalis ATCC 29212 assessed as mutation prevention concentration measured after 72 hrs; type: functional; conditions: ATCC 29212, 72 h
Enterococcus faecalis [8] = assay: Antibacterial activity against Enterococcus faecalis T1027 by broth microdilution method; type: functional
Staphylococcus aureus [9] = assay: Antibacterial activity against Staphylococcus aureus ATCC 29213 by broth microdilution method; type: functional
Staphylococcus aureus [10] = assay: Antibacterial activity against methicillin-resistant Staphylococcus aureus SA14 by broth microdilution method; type: functional
Staphylococcus aureus [11] = assay: Antibacterial activity against Staphylococcus aureus ATCC 29213 assessed as mutation prevention concentration measured after 72 hrs; type: functional; conditions: ATCC 29213, 72 h
Enterococcus faecalis [12] = assay: Antibacterial activity against Streptococcus faecalis by broth microdilution method; type: functional
Staphylococcus aureus [13] = assay: Antibacterial activity against methicillin-resistant Staphylococcus aureus SA86 by broth microdilution method; type: functional
Staphylococcus aureus [14] = assay: Antibacterial activity against Staphylococcus aureus ATCC 29213 assessed as ratio of MIC after and before 1 serial passage at sub-MIC by broth microdilution method; type: functional
Staphylococcus aureus [15] = assay: Antibacterial activity against methicillin-resistant Staphylococcus aureus SA88 by broth microdilution method; type: functional
Enterococcus faecalis [16] = assay: Antibacterial activity against Enterococcus faecalis ZS129 by broth microdilution method; type: functional
Staphylococcus aureus [17] = assay: Bactericidal activity against Staphylococcus aureus ATCC 29213 incubated prior to replating on agar plate measured after overnight incubation; type: functional
Enterococcus faecalis [18] = assay: Antibacterial activity against Enterococcus faecalis ATCC 29212 by broth microdilution method; type: functional
Staphylococcus aureus [19] = assay: Antibacterial activity against methicillin-resistant Staphylococcus aureus ATCC 33591 infected in iv dosed CD-1 ICR mouse administered as single dose measured after 7 days; type: functional; conditions: ATCC 33591, iv, 168 h
Enterococcus faecium [20] = assay: Antibacterial activity against Enterococcus faecium ET60 by broth microdilution method; type: functional
Enterococcus faecalis [21] = assay: Antibacterial activity against Enterococcus faecalis T1027 infected in Galleria mellonella larvae assessed as larvae survival at 50 mg/kg measured at 96 hrs post-infection relative to control; type: functional; conditions: T1027, 96 h
Enterococcus faecalis [22] = assay: Antibacterial activity against Enterococcus faecalis ZS129 infected in Galleria mellonella larvae assessed as larvae survival at 50 mg/kg measured at 96 hrs post-infection relative to control; type: functional; conditions: ZS129, 96 h
[23] = Aqueous solubility of the compound in 0.9% NaCl at >= 100 measured after 15 mins; type: physicochemical; conditions: buffer, 0.25 h
Erythrocyte = assay: Hemolytic activity against rat RBC at 320 ug/ml measured after 1 hr; type: ADME, cell-based
HEK293 = assay: Cytotoxicity against HEK293 cells assessed as reduction in cell viability at >= 20 mg/ml measured after 24 hrs by MTT assay; type: cell-based; conditions: human, hek293, 24 h

`CCCCCCCCCC(=O)N[C@@H](Cc1c[nH]c2ccccc12)C(=O)N[C@H](CC(N)=O)C(=O)N[C@@H](CC(=O)O)C(=O)N[C@@H]1C(=O)NCC(=O)N[C@@H](CCCN)C(=O)N[C@@H](CC(=O)O)C(=O)N[C@H](C)C(=O)N[C@@H](CC(=O)O)C(=O)NCC(=O)N[C@H](CO)C(=O)N[C@@H]([C@@H](C)CC(=O)O)C(=O)N[C@@H](CC(=O)c2ccccc2N)C(=O)O[C@@H]1C` [listing 1 of 2 here] gave an MIC (Enterococcus faecium [1]) of 4 µg/mL (≈ 2.47 µM), a Ratio (Staphylococcus aureus [2]) of 8 and an ED50 (Staphylococcus aureus [3]) of 2.19 mg/kg. It also gave an MBC (Enterococcus faecalis [4]) of 16 µg/mL (≈ 9.87 µM), a survival at 0.925 mg/kg (Staphylococcus aureus [5]) of 50% and an MIC (Staphylococcus aureus [6]) of 2 µg/mL (≈ 1.23 µM). It also gave an MPC (Enterococcus faecalis [7]) of 32 µg/mL, an MIC (Enterococcus faecalis [8]) of 16 µg/mL (≈ 9.87 µM) and an MIC (Staphylococcus aureus [9]) of 0.5 µg/mL (≈ 0.309 µM). It also gave an MIC (Staphylococcus aureus [10]) of 0.5 µg/mL (≈ 0.309 µM), an MPC (Staphylococcus aureus [11]) of 16 µg/mL and an MIC (Enterococcus faecalis [12]) of 0.5 µg/mL (≈ 0.309 µM). For the same molecule, the MIC (Staphylococcus aureus [13]) was 0.5 µg/mL (≈ 0.309 µM), the Ratio (Staphylococcus aureus [14]) was 2 and the MIC (Staphylococcus aureus [15]) was 0.5 µg/mL (≈ 0.309 µM). For the same molecule, the MIC (Enterococcus faecalis [16]) was 0.5 µg/mL (≈ 0.309 µM), the MBC (Staphylococcus aureus [17]) was 0.25 µg/mL (≈ 0.154 µM) and the MIC (Enterococcus faecalis [18]) was 4 µg/mL (≈ 2.47 µM). It also gave an ED50 (Staphylococcus aureus [19]) of 2.14 mg/kg and an MIC (Enterococcus faecium [20]) of 2 µg/mL (≈ 1.23 µM).
`CCCCCCCCCC(=O)N[C@@H](Cc1c[nH]c2ccccc12)C(=O)N[C@@H](CC(N)=O)C(=O)N[C@@H](CC(=O)O)C(=O)N[C@@H]1C(=O)N(C)CC(=O)N[C@@H](CCCN)C(=O)N[C@@H](CC(=O)O)C(=O)N[C@H](C)C(=O)N[C@@H](CC(=O)O)C(=O)NCC(=O)N[C@H](CO)C(=O)N[C@@H]([C@H](C)CC(=O)O)C(=O)N[C@@H](CC(=O)c2ccccc2N)C(=O)O[C@@H]1C` showed an MIC (Enterococcus faecium [1]) of 8 µg/mL (≈ 4.89 µM), an MIC (Staphylococcus aureus [6]) of 0.5 µg/mL (≈ 0.306 µM) and an MIC (Staphylococcus aureus [9]) of 0.5 µg/mL (≈ 0.306 µM). For the same molecule, the MIC (Staphylococcus aureus [10]) was 0.25 µg/mL (≈ 0.153 µM), the MIC (Enterococcus faecalis [12]) was 2 µg/mL (≈ 1.22 µM) and the MIC (Staphylococcus aureus [13]) was 0.5 µg/mL (≈ 0.306 µM). The MIC (Staphylococcus aureus [15]) was 0.5 µg/mL (≈ 0.306 µM), the MIC (Enterococcus faecalis [18]) was 8 µg/mL (≈ 4.89 µM) and the MIC (Enterococcus faecium [20]) was 4 µg/mL (≈ 2.45 µM).
In the case of `CCCCCCCCCC(=O)N[C@@H](Cc1c[nH]c2ccccc12)C(=O)N[C@H](CC(N)=O)C(=O)N[C@@H](CC(=O)O)C(=O)N[C@@H]1C(=O)NCC(=O)N[C@@H](CCCN)C(=O)N[C@@H](CC(=O)O)C(=O)N[C@H](C)C(=O)N[C@@H](CC(=O)O)C(=O)NCC(=O)N[C@H](CO)C(=O)N[C@@H]([C@H](C)CC(=O)O)C(=O)N[C@@H](CC(=O)c2ccccc2NC)C(=O)O[C@@H]1C`, the survival at 50 mg/kg (Enterococcus faecalis [21]) is reported as 60%, the MIC (Enterococcus faecium [1]) is reported as 1 µg/mL (≈ 0.612 µM) and the ED50 (Staphylococcus aureus [3]) is reported as 1.65 mg/kg. For the same molecule, the MBC (Enterococcus faecalis [4]) was 4 µg/mL (≈ 2.45 µM), the survival at 0.925 mg/kg (Staphylococcus aureus [5]) was 100% and the MIC (Staphylococcus aureus [6]) was 0.5 µg/mL (≈ 0.306 µM). It also gave an MPC (Enterococcus faecalis [7]) of 16 µg/mL, an MIC (Staphylococcus aureus [9]) of 0.25 µg/mL (≈ 0.153 µM) and an MIC (Staphylococcus aureus [10]) of 0.25 µg/mL (≈ 0.153 µM). For the same molecule, the MPC (Staphylococcus aureus [11]) was 8 µg/mL, the MIC (Enterococcus faecalis [12]) was 0.5 µg/mL (≈ 0.306 µM) and the MIC (Staphylococcus aureus [13]) was 0.25 µg/mL (≈ 0.153 µM). It also gave an MIC (Staphylococcus aureus [15]) of 0.25 µg/mL (≈ 0.153 µM), an MBC (Staphylococcus aureus [17]) of 0.06 µg/mL (≈ 0.0367 µM) and a survival at 50 mg/kg (Enterococcus faecalis [22]) of 40%. It also gave an MIC (Enterococcus faecalis [18]) of 1 µg/mL (≈ 0.612 µM), an ED50 (Staphylococcus aureus [19]) of 1.38 mg/kg and an MIC (Enterococcus faecium [20]) of 1 µg/mL (≈ 0.612 µM).
With `CCCCCCCCCC(=O)N[C@@H](Cc1c[nH]c2ccccc12)C(=O)N[C@H](CC(N)=O)C(=O)N[C@@H](CC(=O)O)C(=O)N[C@@H]1C(=O)NCC(=O)N[C@@H](CCCN)C(=O)N[C@@H](CC(=O)O)C(=O)N[C@H](C)C(=O)N[C@@H](CC(=O)O)C(=O)NCC(=O)N[C@H](CO)C(=O)N[C@@H]([C@@H](C)CC(=O)O)C(=O)N[C@@H](CC(=O)c2ccccc2N)C(=O)O[C@@H]1C` [listing 2 of 2 here] the solubility [23] was “Soluble”, the Activity (Erythrocyte) was “Non-Toxic” and the Activity (HEK293) was “Toxic”.
